Values of other authors in US6709866B2, “Methods for enhancing survival of a neuron” (Aegera Therapeutics, Inc., priority 1996, dated 2004).

Legend:
[1] = tested on: motoneurons; conditions: literature
[2] = tested on: hippocampal cultures; conditions: 100 pM
[3] = tested on: primary hippocampal, cortical and septal cultures; conditions: Cheng et al. 1994

SMILES: CCSCc1ccc2c(c1)c1c3c(c4c5cc(CSCC)ccc5n5c4c1n2[C@H]1C[C@](O)(C(=O)OC)[C@]5(C)O1)CNC3=O [CEP1347]
- motoneuron death and loss of ChAT in vivo [1]: prevents developmentally programmed motoneuron death and loss of ChAT in adult motoneurons

SMILES: C[C@]12O[C@H](C[C@]1(O)C(=O)O)n1c3ccccc3c3c4c(c5c6ccccc6n2c5c31)CNC4=O [K252b]
- tyrosine phosphorylation of multiple proteins (40 to 200 kDa) [2]: enhance tyrosine phosphorylation

SMILES: O=c1c(-c2ccc(O)cc2)coc2cc(O)cc(O)c12 [genistein]
- effect on the neuroprotective effects of K252-like compounds [3]: blocked
